Reference: ChEMBL document CHEMBL1201862, “PubChem BioAssay data set” (2004)
The source made the active and inactive calls.

Assays:
[1] = target: T1, Voltage-gated N-type calcium channel alpha-1B subunit/Amyloid beta A4 precursor protein-binding family A member 1 (Homo sapiens, UniProt Q00975+Q02410); type: protein assay
[2] = growth suppression of beta-catenin-knockout colon cells, dose response, cell-based, HCT116, human colon tumor (AID 1045); type: functional;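 also: HCT116 colon tumor cells with beta catenin knocked out; cells exposed to compound for 60 hours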
[3] = C. albicans growth with fluconazole, confirmation, fluorescence, retest (AID 2467); type: functional, cell-based
[4] = control 3'UTR Renilla luciferase suppression, dose response, counter-screen for Shn3 inhibitor project, cell-based, Clone20-Shn3RL, cherry-picked (AID 624133); type: functional
[5] = growth suppression of PTEN-null colon cells, dose response, cell-based, HCT116 PTEN knockout (AID 1047); type: functional;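 also: HCT116 colon tumor cells with PTEN knocked out; cells exposed to compound for 60 hours before readout; potency for loss of cell viability measured by luminescence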
[6] = HepG2 cell cytotoxicity, dose response, cytotoxicity control for Shn3 inhibitor project, CellTiter-Glo, cherry-picked (AID 624134); type: functional, cell-based
[7] = Shn3 3'UTR reporter inhibitors, dose response, cell-based, Clone20 osteoblasts, firefly luciferase, cherry-picked (AID 624132); type: functional;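 also: firefly luciferase luminescence from reporter carrying the Shn3 3'UTR in osteoblasts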
Large T antigen = Large T antigen (Simian virus 40, UniProt P03070); type: functional, Betapolyomavirus macacae;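 also: Confirmatory-stage PubChem screen for compounds that inhibit SV40 T antigen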
[8] = target: T1, Voltage-gated N-type calcium channel alpha-1B subunit/Amyloid beta A4 precursor protein-binding family A member 1; type: protein assay; remark: listed apart in the source
[9] = cytotoxicity toward NIH3T3 fibroblasts, dose response, counter-screen, cell-based, ATP luminescence, mouse fibroblasts (AID 2010); type: functional;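 also: cells exposed to compound for about 90 hours before reading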
[10] = target: Heat shock protein HSP 90-alpha (Homo sapiens, UniProt P07900); type: functional, organism-based
[11] = inhibitors of intracellular T. cruzi replication, confirmation, NIH3T3 host cells, beta-gal luminescence (AID 2044); type: functional, cell-based;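 also: intracellular parasites grown in NIH/3T3 mouse fibroblasts as host cells; luminescent beta-galactosidase reporter signal from transgenic T. cruzi replicating inside host cells; inhibitors lower the luminescence signal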
[12] = target: DNA dC->dU-editing enzyme APOBEC-3A (Homo sapiens, UniProt P31941); test: Dose Response confirmation of small molecule APOBEC3A DNA Deaminase Inhibitors via a fluorescence-based single-stranded DNA deaminase assay. [Related pubchem assays (depositor defined):AID493011, AID493024]; type: functional
[13] = target: DNA dC->dU-editing enzyme APOBEC-3G (Homo sapiens, UniProt Q9HC16); type: functional;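 also: Dose-response counterscreen measuring inhibition of APOBEC3G DNA deaminase activity, run while confirming APOBEC3A inhibitors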
[14] = target: T2, E3 ubiquitin-protein ligase XIAP (Homo sapiens, UniProt P98170); test: Counter Screen using XIAP-Bir3 for Chemical Antagonists of Bir1/2 domains of IAP-family anti-apoptotic proteins. [Related pubchem assays (depositor defined):AID1018, AID1449, AID1514, AID1638, AID1749, AID1750, AID488957, AID488963]
[15] = target: T2, E3 ubiquitin-protein ligase XIAP; test: XIAP antagonists, biochemical, IAP family, fluorescence polarization (AID 1018); type: functional
[16] = Counterscreen for AddAB inhibitors: absorbance-based bacterial cell-based high throughput dose response assay for inhibitors of bacterial viability. [Related pubchem assays (depositor defined):AID435030, AID449728, AID449731, AID488942, AID488955, AID488956]; type: functional
Exodeoxyribonuclease V = target: T3, Exodeoxyribonuclease V (Escherichia coli (strain K12), UniProt P04993+P07648+P08394); test: E. coli RecBCD inhibitors, dose response, counter-screen for AddAB inhibitor project, absorbance, V66 E. coli, mutant T4 phage (AID 492957); type: functional, cell-based, Escherichia coli str. K-12 substr. MG1655
T3 sequence (P04993 whole entry): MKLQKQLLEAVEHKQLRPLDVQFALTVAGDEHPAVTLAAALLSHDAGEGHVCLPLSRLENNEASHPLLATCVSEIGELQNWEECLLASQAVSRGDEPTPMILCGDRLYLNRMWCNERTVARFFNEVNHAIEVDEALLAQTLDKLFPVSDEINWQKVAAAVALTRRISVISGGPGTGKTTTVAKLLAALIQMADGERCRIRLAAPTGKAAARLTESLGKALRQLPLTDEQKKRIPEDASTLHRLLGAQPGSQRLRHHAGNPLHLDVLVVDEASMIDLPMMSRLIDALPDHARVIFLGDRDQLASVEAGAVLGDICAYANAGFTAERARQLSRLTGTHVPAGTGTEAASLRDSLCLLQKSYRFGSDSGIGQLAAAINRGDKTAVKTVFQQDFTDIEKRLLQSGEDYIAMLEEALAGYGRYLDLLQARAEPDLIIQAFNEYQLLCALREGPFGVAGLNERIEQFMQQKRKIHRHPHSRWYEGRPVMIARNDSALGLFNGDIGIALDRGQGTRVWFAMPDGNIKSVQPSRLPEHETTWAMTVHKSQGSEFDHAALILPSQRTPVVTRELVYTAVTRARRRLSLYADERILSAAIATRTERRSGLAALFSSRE
T3 sequence (P07648 whole entry): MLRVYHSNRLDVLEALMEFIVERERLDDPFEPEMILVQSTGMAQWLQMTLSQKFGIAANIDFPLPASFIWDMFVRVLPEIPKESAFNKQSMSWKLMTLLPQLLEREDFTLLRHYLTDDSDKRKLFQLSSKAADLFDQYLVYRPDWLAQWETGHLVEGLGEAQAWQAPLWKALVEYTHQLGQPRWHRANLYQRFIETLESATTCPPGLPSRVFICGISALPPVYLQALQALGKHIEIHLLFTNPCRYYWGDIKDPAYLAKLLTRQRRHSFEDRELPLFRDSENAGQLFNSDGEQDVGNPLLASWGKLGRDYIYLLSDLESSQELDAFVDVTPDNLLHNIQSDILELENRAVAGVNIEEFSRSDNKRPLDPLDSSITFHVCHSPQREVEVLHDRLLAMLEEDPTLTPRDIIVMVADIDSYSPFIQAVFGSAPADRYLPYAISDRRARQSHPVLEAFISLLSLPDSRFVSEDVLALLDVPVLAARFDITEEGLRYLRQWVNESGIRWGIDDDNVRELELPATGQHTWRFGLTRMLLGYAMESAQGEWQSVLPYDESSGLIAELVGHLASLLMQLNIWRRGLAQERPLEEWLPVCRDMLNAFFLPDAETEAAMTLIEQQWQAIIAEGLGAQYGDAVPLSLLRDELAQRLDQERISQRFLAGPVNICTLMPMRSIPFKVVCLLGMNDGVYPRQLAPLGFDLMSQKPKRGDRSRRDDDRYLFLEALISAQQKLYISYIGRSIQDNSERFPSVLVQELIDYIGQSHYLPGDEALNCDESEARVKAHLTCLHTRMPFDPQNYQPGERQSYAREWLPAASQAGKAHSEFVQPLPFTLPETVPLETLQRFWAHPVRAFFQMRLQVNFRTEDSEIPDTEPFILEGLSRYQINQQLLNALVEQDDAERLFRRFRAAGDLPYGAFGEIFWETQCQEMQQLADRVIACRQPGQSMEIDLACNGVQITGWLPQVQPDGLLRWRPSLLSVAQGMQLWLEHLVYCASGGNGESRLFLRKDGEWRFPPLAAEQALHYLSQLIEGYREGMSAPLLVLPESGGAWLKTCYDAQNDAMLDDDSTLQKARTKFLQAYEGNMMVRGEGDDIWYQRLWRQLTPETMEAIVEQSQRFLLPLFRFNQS
T3 sequence (P08394 whole entry): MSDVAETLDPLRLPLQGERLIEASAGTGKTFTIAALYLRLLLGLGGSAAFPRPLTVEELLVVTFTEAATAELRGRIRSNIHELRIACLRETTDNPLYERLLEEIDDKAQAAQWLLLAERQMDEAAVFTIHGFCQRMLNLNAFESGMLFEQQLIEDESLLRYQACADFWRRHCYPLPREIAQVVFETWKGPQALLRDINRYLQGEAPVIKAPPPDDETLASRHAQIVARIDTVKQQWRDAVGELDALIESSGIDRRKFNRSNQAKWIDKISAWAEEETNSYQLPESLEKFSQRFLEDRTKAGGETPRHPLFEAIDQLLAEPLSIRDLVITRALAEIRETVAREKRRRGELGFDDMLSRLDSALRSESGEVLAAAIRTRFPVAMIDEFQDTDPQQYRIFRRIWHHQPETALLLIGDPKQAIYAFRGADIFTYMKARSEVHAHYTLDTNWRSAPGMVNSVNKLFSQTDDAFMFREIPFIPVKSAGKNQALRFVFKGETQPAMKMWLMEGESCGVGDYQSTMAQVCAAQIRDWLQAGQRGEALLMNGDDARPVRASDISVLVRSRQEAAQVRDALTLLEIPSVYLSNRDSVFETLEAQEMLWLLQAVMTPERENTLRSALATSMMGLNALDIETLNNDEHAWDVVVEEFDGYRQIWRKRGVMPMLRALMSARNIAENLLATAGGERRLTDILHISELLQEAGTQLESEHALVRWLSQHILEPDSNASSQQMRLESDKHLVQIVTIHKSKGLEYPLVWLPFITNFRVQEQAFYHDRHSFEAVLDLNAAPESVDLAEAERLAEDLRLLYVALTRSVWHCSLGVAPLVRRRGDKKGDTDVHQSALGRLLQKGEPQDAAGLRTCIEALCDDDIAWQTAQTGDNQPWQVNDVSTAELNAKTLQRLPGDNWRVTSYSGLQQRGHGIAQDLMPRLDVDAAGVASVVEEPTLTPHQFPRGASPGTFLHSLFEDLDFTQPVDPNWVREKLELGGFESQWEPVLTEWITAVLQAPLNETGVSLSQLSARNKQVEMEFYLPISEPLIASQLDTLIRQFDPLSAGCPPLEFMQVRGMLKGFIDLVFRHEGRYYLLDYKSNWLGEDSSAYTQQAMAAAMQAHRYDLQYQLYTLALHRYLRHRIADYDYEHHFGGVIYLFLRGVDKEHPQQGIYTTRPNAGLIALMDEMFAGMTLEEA

[17] = target: DNA (cytosine-5)-methyltransferase 1 (Homo sapiens, UniProt P26358); test: DNMT1 methyltransferase inhibitors, confirmation, biochemical, fluorescent molecular beacon (AID 602386); type: functional
[18] = target: Induced myeloid leukemia cell differentiation protein Mcl-1 (Homo sapiens, UniProt Q07820); type: functional
[19] = target: T4, Carboxy-terminal domain RNA polymerase II polypeptide A small phosphatase 1 (Homo sapiens, UniProt Q9GZU7); test: inhibitors of CTDSP1, concentration-response testing, biochemical assay, absorbance-based, actives from ultra-high-throughput screening (AID 540297); type: functional
T4 sequence (Q9GZU7 whole entry): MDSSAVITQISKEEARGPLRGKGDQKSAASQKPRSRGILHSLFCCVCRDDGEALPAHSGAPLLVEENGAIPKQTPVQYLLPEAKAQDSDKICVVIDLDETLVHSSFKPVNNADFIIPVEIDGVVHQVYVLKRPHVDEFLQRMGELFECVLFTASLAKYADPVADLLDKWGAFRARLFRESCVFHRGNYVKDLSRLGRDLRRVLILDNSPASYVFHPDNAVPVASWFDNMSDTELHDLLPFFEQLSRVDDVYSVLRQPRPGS

Genome polyprotein = Genome polyprotein (dengue virus type 2, UniProt P29990); test: Dengue-2 NS5 methyltransferase inhibitors, primary screen, biochemical, confirmation dose response (AID 588689); type: functional
Caspase-6 = target: T5, Caspase-6 (Homo sapiens, UniProt P55212); test: human caspase-6 inhibitors, dose response, biochemical, VEID-R110 fluorescence, cherry-pick (AID 720632)
T5 sequence (P55212 whole entry): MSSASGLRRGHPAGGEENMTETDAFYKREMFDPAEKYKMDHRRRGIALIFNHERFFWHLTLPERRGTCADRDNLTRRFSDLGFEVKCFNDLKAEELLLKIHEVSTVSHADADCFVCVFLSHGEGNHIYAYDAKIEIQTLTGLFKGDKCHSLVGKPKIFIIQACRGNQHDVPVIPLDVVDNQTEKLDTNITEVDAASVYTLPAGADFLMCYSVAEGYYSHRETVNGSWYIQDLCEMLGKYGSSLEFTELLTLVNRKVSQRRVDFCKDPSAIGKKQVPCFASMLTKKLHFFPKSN

Beta-galactosidase = Beta-galactosidase (Escherichia coli, UniProt Q8VNN2); test: Dose response counterscreen for EBI2 assay utilizing the enzyme, b-galactosidase.; type: functional
[20] = target: T6, Tyrosine-protein phosphatase non-receptor type 7 (Homo sapiens, UniProt P35236); test: redox-dependent HePTP inhibition, mechanism study, biochemical, fluorescence (AID 2068); type: functional
T6 sequence (P35236 whole entry): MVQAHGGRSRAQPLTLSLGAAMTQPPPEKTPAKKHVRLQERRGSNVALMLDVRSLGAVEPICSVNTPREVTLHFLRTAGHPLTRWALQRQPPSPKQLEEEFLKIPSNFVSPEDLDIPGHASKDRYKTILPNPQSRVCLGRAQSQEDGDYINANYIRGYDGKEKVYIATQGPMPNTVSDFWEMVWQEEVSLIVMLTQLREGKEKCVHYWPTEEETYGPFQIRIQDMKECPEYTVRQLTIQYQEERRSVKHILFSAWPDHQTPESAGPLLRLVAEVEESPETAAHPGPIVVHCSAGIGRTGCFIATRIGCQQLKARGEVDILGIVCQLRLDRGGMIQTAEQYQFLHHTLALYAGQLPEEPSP

T2 sequence (P98170 whole entry): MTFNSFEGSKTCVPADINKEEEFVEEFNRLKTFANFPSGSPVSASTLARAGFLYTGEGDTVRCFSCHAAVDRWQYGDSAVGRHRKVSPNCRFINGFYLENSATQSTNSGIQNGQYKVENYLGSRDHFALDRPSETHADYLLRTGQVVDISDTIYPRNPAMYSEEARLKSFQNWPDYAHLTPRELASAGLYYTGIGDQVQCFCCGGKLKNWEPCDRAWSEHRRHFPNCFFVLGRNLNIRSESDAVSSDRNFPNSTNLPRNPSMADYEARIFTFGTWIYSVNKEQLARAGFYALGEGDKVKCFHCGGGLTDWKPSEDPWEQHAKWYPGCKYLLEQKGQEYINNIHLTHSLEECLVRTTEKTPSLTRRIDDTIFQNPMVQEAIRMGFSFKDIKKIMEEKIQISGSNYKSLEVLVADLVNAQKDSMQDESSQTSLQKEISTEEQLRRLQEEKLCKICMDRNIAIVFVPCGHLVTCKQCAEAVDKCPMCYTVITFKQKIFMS
T1 sequence (Q00975 whole entry): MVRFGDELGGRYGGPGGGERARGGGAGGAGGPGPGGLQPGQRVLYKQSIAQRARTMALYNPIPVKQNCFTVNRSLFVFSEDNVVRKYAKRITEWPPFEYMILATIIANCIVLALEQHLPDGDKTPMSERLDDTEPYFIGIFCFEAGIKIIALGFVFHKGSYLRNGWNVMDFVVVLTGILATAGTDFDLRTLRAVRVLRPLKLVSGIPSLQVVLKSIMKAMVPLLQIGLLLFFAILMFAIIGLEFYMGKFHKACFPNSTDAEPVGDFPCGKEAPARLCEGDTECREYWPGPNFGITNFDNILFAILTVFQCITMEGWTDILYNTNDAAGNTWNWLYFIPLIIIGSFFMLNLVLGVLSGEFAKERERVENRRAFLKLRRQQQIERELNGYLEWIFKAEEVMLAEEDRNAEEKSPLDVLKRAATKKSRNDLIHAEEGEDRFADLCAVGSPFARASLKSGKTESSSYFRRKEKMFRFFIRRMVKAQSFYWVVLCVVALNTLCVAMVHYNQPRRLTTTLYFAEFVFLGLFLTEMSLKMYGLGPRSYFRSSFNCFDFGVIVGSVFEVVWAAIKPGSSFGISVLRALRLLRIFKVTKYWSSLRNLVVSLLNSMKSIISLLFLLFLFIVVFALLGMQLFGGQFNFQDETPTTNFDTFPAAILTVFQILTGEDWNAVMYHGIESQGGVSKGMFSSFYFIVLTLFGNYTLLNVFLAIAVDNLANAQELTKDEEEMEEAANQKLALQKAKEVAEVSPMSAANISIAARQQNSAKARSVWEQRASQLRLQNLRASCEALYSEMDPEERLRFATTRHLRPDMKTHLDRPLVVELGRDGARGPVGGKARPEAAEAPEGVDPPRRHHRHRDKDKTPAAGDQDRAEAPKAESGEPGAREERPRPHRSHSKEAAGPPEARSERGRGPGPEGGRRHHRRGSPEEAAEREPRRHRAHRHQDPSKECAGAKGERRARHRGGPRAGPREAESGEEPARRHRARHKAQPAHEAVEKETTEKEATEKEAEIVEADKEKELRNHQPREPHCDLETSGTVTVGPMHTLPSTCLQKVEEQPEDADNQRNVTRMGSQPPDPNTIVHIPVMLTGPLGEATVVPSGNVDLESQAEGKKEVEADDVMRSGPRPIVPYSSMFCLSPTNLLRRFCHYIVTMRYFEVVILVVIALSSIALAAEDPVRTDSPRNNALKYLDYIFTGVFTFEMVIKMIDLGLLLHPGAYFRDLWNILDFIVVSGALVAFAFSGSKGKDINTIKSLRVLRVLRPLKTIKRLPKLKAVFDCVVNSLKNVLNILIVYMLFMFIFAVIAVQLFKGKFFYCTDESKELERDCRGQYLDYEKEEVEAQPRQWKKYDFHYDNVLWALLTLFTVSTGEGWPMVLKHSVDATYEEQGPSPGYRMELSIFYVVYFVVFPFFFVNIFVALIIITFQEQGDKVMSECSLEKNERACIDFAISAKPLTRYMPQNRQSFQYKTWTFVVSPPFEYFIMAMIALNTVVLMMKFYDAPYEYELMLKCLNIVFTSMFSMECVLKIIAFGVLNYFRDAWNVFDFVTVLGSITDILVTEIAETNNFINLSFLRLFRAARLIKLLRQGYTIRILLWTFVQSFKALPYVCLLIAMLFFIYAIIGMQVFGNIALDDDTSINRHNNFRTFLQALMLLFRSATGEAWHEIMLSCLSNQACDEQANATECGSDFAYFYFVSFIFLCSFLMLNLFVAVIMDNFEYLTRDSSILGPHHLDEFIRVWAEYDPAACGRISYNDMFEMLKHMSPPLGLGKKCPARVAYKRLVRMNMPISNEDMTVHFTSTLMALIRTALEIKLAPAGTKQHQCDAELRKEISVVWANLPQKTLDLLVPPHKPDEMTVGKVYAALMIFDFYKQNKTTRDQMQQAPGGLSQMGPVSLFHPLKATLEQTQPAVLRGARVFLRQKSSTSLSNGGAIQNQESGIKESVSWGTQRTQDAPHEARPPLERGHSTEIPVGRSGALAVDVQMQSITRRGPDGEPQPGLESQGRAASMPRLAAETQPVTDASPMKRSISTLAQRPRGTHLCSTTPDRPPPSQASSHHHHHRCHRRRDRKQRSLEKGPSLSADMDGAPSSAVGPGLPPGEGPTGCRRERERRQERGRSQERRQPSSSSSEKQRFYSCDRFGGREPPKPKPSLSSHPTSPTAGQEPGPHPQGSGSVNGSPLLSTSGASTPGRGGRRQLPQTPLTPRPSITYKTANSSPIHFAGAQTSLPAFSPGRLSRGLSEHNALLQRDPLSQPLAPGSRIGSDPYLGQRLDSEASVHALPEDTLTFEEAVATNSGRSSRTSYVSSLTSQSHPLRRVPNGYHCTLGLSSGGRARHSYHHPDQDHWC
T1 sequence (Q02410 whole entry): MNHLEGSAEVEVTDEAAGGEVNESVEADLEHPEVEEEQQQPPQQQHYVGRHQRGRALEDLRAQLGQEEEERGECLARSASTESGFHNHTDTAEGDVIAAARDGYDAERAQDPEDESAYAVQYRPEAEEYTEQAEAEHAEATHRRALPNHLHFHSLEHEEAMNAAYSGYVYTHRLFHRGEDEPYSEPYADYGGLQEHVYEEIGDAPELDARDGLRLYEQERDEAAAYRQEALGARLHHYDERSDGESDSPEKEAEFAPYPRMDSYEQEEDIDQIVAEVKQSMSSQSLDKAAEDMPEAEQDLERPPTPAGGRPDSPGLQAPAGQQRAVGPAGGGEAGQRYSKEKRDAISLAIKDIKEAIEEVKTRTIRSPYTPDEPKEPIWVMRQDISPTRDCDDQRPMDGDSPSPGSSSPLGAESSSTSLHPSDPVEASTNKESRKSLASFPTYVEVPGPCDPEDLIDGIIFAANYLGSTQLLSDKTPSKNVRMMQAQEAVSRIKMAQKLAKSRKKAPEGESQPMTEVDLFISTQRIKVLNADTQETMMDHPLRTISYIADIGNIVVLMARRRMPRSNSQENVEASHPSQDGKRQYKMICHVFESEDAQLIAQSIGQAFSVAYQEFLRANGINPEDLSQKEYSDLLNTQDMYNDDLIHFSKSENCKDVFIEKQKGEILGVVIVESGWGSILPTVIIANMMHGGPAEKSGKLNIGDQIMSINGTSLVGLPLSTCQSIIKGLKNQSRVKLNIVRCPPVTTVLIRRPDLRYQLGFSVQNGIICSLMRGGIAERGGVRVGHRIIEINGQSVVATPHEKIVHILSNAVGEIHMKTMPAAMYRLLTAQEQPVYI
Chain of DNA dC->dU-editing enzyme APOBEC-3A (P31941 whole entry): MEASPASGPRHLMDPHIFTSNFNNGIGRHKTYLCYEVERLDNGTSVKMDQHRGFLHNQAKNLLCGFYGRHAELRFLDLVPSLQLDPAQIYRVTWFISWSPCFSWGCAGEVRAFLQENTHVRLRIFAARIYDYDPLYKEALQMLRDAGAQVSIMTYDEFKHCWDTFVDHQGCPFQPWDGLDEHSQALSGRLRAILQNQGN
Chain of DNA dC->dU-editing enzyme APOBEC-3G (Q9HC16 whole entry): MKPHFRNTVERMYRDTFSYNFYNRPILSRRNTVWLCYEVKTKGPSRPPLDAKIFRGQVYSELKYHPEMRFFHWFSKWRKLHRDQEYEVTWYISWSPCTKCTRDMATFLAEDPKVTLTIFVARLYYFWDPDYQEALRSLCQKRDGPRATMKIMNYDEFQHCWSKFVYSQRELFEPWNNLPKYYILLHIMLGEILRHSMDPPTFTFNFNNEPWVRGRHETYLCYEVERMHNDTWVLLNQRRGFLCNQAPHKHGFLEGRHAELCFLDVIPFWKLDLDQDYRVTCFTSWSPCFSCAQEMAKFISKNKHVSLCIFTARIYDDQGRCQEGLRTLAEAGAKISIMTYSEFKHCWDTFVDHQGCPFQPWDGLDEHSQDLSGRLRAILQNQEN
Chain of Induced myeloid leukemia cell differentiation protein Mcl-1 (Q07820 whole entry, the tested form may be a part): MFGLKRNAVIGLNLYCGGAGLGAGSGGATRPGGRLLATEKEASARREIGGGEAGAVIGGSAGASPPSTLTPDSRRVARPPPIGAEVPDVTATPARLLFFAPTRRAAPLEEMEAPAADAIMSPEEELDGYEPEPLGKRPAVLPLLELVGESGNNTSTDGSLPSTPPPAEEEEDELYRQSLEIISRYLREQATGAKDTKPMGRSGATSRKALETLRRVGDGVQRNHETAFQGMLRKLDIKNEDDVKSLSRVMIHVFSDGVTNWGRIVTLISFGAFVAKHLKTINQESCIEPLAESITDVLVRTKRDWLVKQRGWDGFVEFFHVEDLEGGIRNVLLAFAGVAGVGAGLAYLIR

Cc1ccc(-n2nnnc2C(Cl)(Cl)c2nnnn2-c2ccc(C)cc2)cc1
IC50 [1]: 5.57 µM (active) | EC50 [2]: 9.11 µM (active) | EC50 [3]: > 38 µM (not active) | AC50 [4]: 15.6 µM (active) | EC50 [5]: 9.09 µM (active) | AC50 [6]: > 70 µM (inactive) | AC50 [7]: 4.71 µM (active) | IC50 (Large T antigen): 11.1 µM (active) | IC50 [8]: 4.55 µM (active) | EC50 [9]: 15 µM (active) | AC50 [10]: 1.27 µM (active) | EC50 [11]: 1.11 µM (active)

CCN1CCN(S(=O)(=O)c2ccc(Cl)c(C(=O)Nc3ccccc3N3CCOCC3)c2)CC1
IC50 [12]: 4.8 µM (active) | IC50 [13]: 3.81 µM (active)

Cc1c(Br)cccc1NC(=O)c1sccc1-n1cccc1
IC50 [14]: > 100 µM (inactive) | IC50 [15]: > 100 µM (not active)

O=C(c1ccc([N+](=O)[O-])o1)N1CCOCC1
IC50 [16]: > 39.5 µM (inactive) | IC50 (Exodeoxyribonuclease V): 114 µM (inactive)

COc1ccc(-c2csc(NC(=O)CSc3nc(C)nc4sc(C(=O)O)c(C)c34)n2)cc1
IC50 [17]: 14.6 µM (active) | IC50 [1]: > 50 µM (inactive) | IC50 [18]: 7.81 µM (active) | IC50 [19]: 4.31 µM (active) | IC50 (Genome polyprotein): 92.7 µM (active) | IC50 [8]: > 56.8 µM (not active)

COc1ccccc1NC(=O)COC(=O)c1cc2c(s1)CCC2
IC50 [12]: 19.1 µM (active) | AC50 (Caspase-6): 5.53 µM (active) | IC50 [13]: 51 µM (active)

O=C(/C=C/c1ccc(Cl)cc1)N1CCN(c2ccc([N+](=O)[O-])c(N3CCOCC3)c2)CC1
IC50 [14]: > 100 µM (inactive) | IC50 (Beta-galactosidase): > 80 µM (inactive) | IC50 [15]: > 100 µM (not active)

c1cc(CNc2ccc(N3CCOCC3)cc2)ccn1
IC50 [14]: > 100 µM (inactive) | IC50 [15]: > 100 µM (not active)

CCCCNC(=O)Nc1ccc2nc(-c3ccco3)c(-c3ccco3)nc2c1
IC50 [20]: 0.452 µM (active)
